Like-named read-outs stand apart in the source and are kept apart here. Each block holds one compound with its values, some of them ahead of it.
Biological target: T1, Recombinant human cathepsin A (Homo sapiens, UniProt P10619)
T1 construct: Recombinant human cathepsin A (residues 29-480, with a C-terminal 10-His tag); 10-His (C); purchased R&D Systems 1049-SE
T1 sequence (P10619 29-312 limits assumed): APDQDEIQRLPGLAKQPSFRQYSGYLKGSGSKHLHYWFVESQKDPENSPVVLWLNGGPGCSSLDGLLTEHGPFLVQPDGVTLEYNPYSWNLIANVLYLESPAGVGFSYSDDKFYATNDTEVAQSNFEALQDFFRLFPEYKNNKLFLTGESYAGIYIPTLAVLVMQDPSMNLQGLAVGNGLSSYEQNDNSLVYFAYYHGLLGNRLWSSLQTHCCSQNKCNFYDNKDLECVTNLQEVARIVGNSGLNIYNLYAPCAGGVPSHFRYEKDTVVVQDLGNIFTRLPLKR
T1 sequence (P10619 327-480 limits assumed): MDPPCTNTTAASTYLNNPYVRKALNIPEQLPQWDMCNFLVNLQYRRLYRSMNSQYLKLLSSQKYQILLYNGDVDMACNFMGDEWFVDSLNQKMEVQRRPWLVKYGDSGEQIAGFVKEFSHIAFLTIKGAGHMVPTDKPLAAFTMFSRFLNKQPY
Test: Cathepsin A inhibitory activity
Assay type: biochemical
Method: a) Cathepsin A Inhibitory Activity
Recombinant human cathepsin A (residues 29-480, with a C-terminal 10-His tag; R&D Systems, #1049-SE) was proteolytically activated with recombinant human cathepsin L (R&D Systems, #952-CY). Briefly, cathepsin A was incubated at 10 μg/ml with cathepsin L at 1 μg/ml in activation buffer (25 mM 2-(morpholin-4-yl)-ethanesulfonic acid (MES), pH 6.0, containing 5 mM dithiothreitol (DTT)) for 15 min at 37° C. Cathepsin L activity was then stopped by the addition of the cysteine protease inhibitor E-64 (N-(trans-epoxysuccinyl)-L-leucine-4-guanidinobutylamide; Sigma-Aldrich, #E3132; dissolved in activation buffer/DMSO) to a final concentration of 10 μM.
The activated cathepsin A was diluted in assay buffer (25 mM MES, pH 5.5, containing 5 mM DTT) and mixed with the test compound (dissolved in assay buffer containing (v/v) 3% DMSO) or, in the control experiments, with the vehicle in a multiple assay plate. After incubation for 15 min at room temperature, as substrate then bradykinin carrying an N-terminal®Bodipy FL (4,4-difluoro-5,7-dimethyl-4-bora-3a,4a-diaza-s-indacene-3-propionyl) label (JPT Peptide Technologies GmbH; dissolved in assay buffer) was added to the mixture. The final concentration of cathepsin A was 833 ng/ml and the final concentration of labeled bradykinin 2 μM. After incubation for 15 min at room temperature the reaction was stopped by the addition of stop buffer (130 mM 2-(4-(2-hydroxy-ethyl)-piperazin-1-yl)-ethanesulfonic acid, pH 7.4, containing (v/v) 0.013% Triton X-100, 0.13% Coating Reagent 3 (Caliper Life Sciences), 6.5% DMSO and 20 μM ebelactone B (Sigma, # E0886)).
Uncleaved substrate and product were then separated by a microfluidic capillary electrophoresis on a LabChip® 3000 Drug Discovery System (12-Sipper-Chip; Caliper Life Sciences) and quantified by determination of the respective peak areas. Substrate turnover was calculated by dividing product peak area by the sum of substrate and product peak areas, and the enzyme activity and the inhibitory effect of the test compound thus quantified. From the percentage of inhibition of cathepsin A activity observed with the test compound at several concentrations, the inhibitory concentration IC50, i.e. the concentration which effects 50% inhibition of enzyme activity was, calculated.

[1] = pharmacological test "Cathepsin A inhibitory activity", IC50 given as class A/B/C, read-out: Activity (2): Cathepsin A inhibitory activity, IC50 class
[2] = read-out: Activity (2): Cathepsin A inhibitory activity (IC50 class)
[3] = read-out: Activity (2): Cathepsin A inhibitory activity, IC50 class
[4] = recombinant human cathepsin A, read-out: Activity (2): Cathepsin A inhibitory activity, IC50 class
[5] = recombinant human cathepsin A 833 ng/ml, Bodipy FL-labeled bradykinin 2 μM, pH 5.5, read-out: CATH-A IC50

IC50 [1]: 100 to 1000 nM
SMILES: O=C(O)C[C@H](NC(=O)c1cc(O)n(-c2ccccc2)n1)c1ccccc1Br [Example 159]

SMILES: CC(C)(C)[C@H](O)COc1cc(C(=O)N[C@@H](CC(=O)O)c2ccc(Cl)cc2Cl)nn1-c1ccccc1F [Example 754, (S)-3-(2,4-Dichloro-phenyl)-3-{[1-(2-fluoro-phenyl)-5-((S)-2-hydroxy-3,3-dimethyl-butoxy)-1H-pyrazole-3-carbonyl]-amino}-propionic acid]
IC50 [2]: < 100 nM

IC50 [1]: 100 to 1000 nM
SMILES: O=C(O)C[C@H](NC(=O)c1cc(O)n(-c2ccc(F)cc2F)n1)c1ccccc1Br [Example 175]

IC50 [3]: 100 to 1000 nM
SMILES: O=C(O)C[C@H](NC(=O)c1cc(O)n(-c2ccccc2)n1)c1ccccc1C(F)(F)F [Example 97]

IC50 [4]: 100 to 1000 nM
SMILES: COc1cccc([C@H](CC(=O)O)NC(=O)c2cc(O)n(-c3cccc(Cl)c3)n2)c1OC [Example 417]

SMILES: CC(C)(C)[C@@H](O)COc1cc(C(=O)N[C@@H](CC(=O)O)c2cccc(Cl)c2Cl)nn1-c1ccccc1F [Example 776, (S)-3-(2,3-Dichloro-phenyl)-3-{[1-(2-fluoro-phenyl)-5-((R)-2-hydroxy-3,3-dimethyl-butoxy)-1H-pyrazole-3-carbonyl]-amino}-propionic acid]
IC50 [2]: < 100 nM

IC50 [2]: 1000 to 30000 nM
IC50 [5]: 1110 nM
SMILES: COc1cc(-c2ccccc2)ccc1C(CC(=O)O)NC(=O)c1cc(O)n(-c2ccccc2)n1 (stereo not shown) [Example 545, 3-[(5-Hydroxy-1-phenyl-1H-pyrazole-3-carbonyl)-amino]-3-(3-methoxy-biphenyl-4-yl)-propionic acid]

SMILES: CC(C)[C@@](C)(O)COc1cc(C(=O)NC2(CC(=O)O)CCCC2)nn1-c1ccccc1F [Example 824, (1-{[1-(2-Fluoro-phenyl)-5-((R)-2-hydroxy-2,3-dimethyl-butoxy)-1H-pyrazole-3-carbonyl]-amino}-cyclopentyl)-acetic acid]
IC50 [3]: 100 to 1000 nM

IC50 [5]: 52.4 nM
IC50 [4]: < 100 nM
SMILES: O=C(O)CC(NC(=O)c1cc(O)n(-c2ccccc2Cl)n1)c1ccc(-c2ccccn2)cc1 (stereo not shown) [Example 506, 3-{[1-(2-Chloro-phenyl)-5-hydroxy-1H-pyrazole-3-carbonyl]-amino}-3-(4-pyridin-2-yl-phenyl)-propionic acid]

IC50 [1]: 100 to 1000 nM
SMILES: COc1cccc([C@H](CC(=O)O)NC(=O)c2cc(O)n(-c3ccc(F)cc3F)n2)c1 [Example 182]

IC50 [2]: 100 to 1000 nM
SMILES: COc1c(Cl)c(C(=O)N[C@@H](CC(=O)O)c2ccccc2C)nn1-c1ccccc1F [Example 593]

IC50 [2]: < 100 nM
SMILES: Cc1ccccc1[C@H](CC(=O)O)NC(=O)c1cc(OCc2ccncc2)n(-c2ccccc2F)n1 [Example 629]

IC50 [1]: 100 to 1000 nM
SMILES: CCc1ccc(C(CC(=O)O)NC(=O)c2cc(O)n(-c3cccc(Cl)c3)n2)cc1 (stereo not shown) [Example 264]

IC50 [3]: 100 to 1000 nM
SMILES: N#Cc1cccc([C@H](CC(=O)O)NC(=O)c2cc(O)n(-c3ccc(F)cc3F)n2)c1 [Example 381]

IC50 [1]: 100 to 1000 nM
SMILES: O=C(O)C[C@H](NC(=O)c1cc(O)n(-c2ccccc2Cl)n1)c1cccnc1 [Example 145]

IC50 [3]: 1000 to 30000 nM
SMILES: O=C(O)C[C@H](NC(=O)c1cc(O)n(-c2cccc(F)c2)n1)c1ccc(C(F)(F)F)cc1 [Example 313]

SMILES: CC(C)C(C)(O)COc1cc(C(=O)N[C@@H](CC(=O)O)c2ccccc2Cl)nn1-c1ccccc1F (stereo partly drawn) [Example 775, (S)-3-(2-Chloro-phenyl)-3-{[1-(2-fluoro-phenyl)-5-(2-hydroxy-2,3-dimethyl-butoxy)-1H-pyrazole-3-carbonyl]-amino}-propionic acid]
IC50 [2]: < 100 nM

IC50 [3]: 1000 to 30000 nM
SMILES: O=C(O)CC(NC(=O)c1cc(O)n(-c2ccc(F)cc2)n1)c1ccccc1F (stereo not shown) [Example 343]

IC50 [3]: 1000 to 30000 nM
SMILES: O=C(O)CC(NC(=O)c1cc(O)n(-c2ccccc2)n1)c1ccc(F)c(F)c1 (stereo not shown) [Example 60]

IC50 [3]: 1000 to 30000 nM
SMILES: COc1ccc(C(CC(=O)O)NC(=O)c2cc(O)n(-c3ccc(F)cc3)n2)c(F)c1 (stereo not shown) [Example 90]

IC50 [1]: 1000 to 30000 nM
SMILES: O=C(O)C[C@H](NC(=O)c1cc(O)n(-c2ccccc2F)n1)c1ccc(-c2ccc(F)cc2)cc1 [Example 146]

IC50 [3]: 100 to 1000 nM
SMILES: O=C(O)CC(NC(=O)c1cc(O)n(-c2cccc(F)c2)n1)c1cccc(Cl)c1F (stereo not shown) [Example 322]

IC50 [1]: 100 to 1000 nM
SMILES: O=C(O)CC(NC(=O)c1cc(O)n(-c2ccccc2F)n1)c1ccc(C(F)(F)F)cc1F (stereo not shown) [Example 238]

IC50 [1]: 100 to 1000 nM
SMILES: O=C(O)CC(NC(=O)c1cc(O)n(-c2ccccc2F)n1)c1cccc2c1OCO2 (stereo not shown) [Example 228]

IC50 [5]: 29800 nM
IC50 [4]: 1000 to 30000 nM
SMILES: O=C(O)CC(NC(=O)c1cc(O)n(-c2ccccc2Cl)n1)c1ccc(N2CCOCC2)cc1 (stereo not shown) [Example 505, 3-{[1-(2-Chloro-phenyl)-5-hydroxy-1H-pyrazole-3-carbonyl]-amino}-3-(4-morpholin-4-yl-phenyl)-propionic acid]

IC50 [3]: 100 to 1000 nM
SMILES: O=C(O)C[C@H](NC(=O)c1cc(O)n(-c2ccc(F)cc2)n1)c1ccccc1F [Example 366]

IC50 [4]: 100 to 1000 nM
SMILES: O=C(O)CC(NC(=O)c1cc(O)n(-c2ccccc2F)n1)c1cccc2c1OC(F)(F)O2 (stereo not shown) [Example 476]

IC50 [3]: 100 to 1000 nM
SMILES: O=C(O)C[C@H](NC(=O)c1cc(O)n(-c2ccccc2F)n1)c1cccc(F)c1 [Example 400]

IC50 [3]: 1000 to 30000 nM
SMILES: CC(C)(C)Oc1cccc(C(CC(=O)O)NC(=O)c2cc(O)n(-c3ccccc3)n2)c1 (stereo not shown) [Example 6]

IC50 [1]: 100 to 1000 nM
SMILES: O=C(O)CC(NC(=O)c1cc(O)n(-c2ccccc2)n1)c1cccc(Cl)c1Cl (stereo not shown) [Example 168]

IC50 [4]: 1000 to 30000 nM
SMILES: CCC(COC)NC(=O)C[C@H](NC(=O)c1cc(OC)n(-c2ccccc2F)n1)c1ccccc1C (stereo partly drawn) [Example 921, 1-(2-Fluoro-phenyl)-5-methoxy-1H-pyrazole-3-carboxylic acid [(S)-2-(1-methoxymethyl-propylcarbamoyl)-1-o-tolyl-ethyl]-amide]

IC50 [5]: 139 nM
IC50 [4]: 100 to 1000 nM
SMILES: O=C(O)CC(NC(=O)c1cc(O)n(-c2ccc(F)cc2F)n1)c1cc(F)ccc1C(F)(F)F (stereo not shown) [Example 452, 3-{[1-(2,4-Difluoro-phenyl)-5-hydroxy-1H-pyrazole-3-carbonyl]-amino}-3-(5-fluoro-2-trifluoromethyl-phenyl)-propionic acid]

IC50 [2]: < 100 nM
SMILES: CCOCCOCCOc1cc(C(=O)N[C@@H](CC(=O)O)c2ccccc2C)nn1-c1ccccc1F [Example 637]

IC50 [4]: 1000 to 30000 nM
SMILES: COc1ccc([C@H](CC(=O)O)NC(=O)c2cc(O)n(-c3ccc(Cl)cc3)n2)cc1 [Example 423]

IC50 [1]: 100 to 1000 nM
SMILES: O=C(O)CC(NC(=O)c1cc(O)n(-c2ccccc2Cl)n1)c1ccc(-c2cccc(F)c2)cc1 (stereo not shown) [Example 219]

IC50 [1]: 1000 to 30000 nM
SMILES: Cc1ccccc1[C@H](CC(=O)O)NC(=O)c1cc(O)n(-c2cccnc2)n1 [Example 143]

IC50 [2]: 100 to 1000 nM
SMILES: O=C(O)CC(NC(=O)c1cc(O)n(-c2ccccc2Cl)n1)c1ccc(-c2ccccc2F)cc1 (stereo not shown) [Example 585, 3-{[1-(2-Chloro-phenyl)-5-hydroxy-1H-pyrazole-3-carbonyl]-amino}-3-(2′-fluoro-biphenyl-4-yl)-propionic acid]

SMILES: Cc1ccc([C@H](CC(=O)O)NC(=O)c2cc(OC[C@](C)(O)C(C)C)n(-c3ccccc3F)n2)c(C)c1 [Example 859, (S)-3-(2,4-Dimethyl-phenyl)-3-{[1-(2-fluoro-phenyl)-5-((R)-2-hydroxy-2,3-dimethyl-butoxy)-1H-pyrazole-3-carbonyl]-amino}-propionic acid]
IC50 [3]: < 100 nM

IC50 [2]: 100 to 1000 nM
SMILES: O=C(O)CC(NC(=O)c1cc(O)n(-c2ccccc2)n1)c1ccc(-c2ccccc2Cl)cc1 (stereo not shown) [Example 539]

IC50 [1]: 100 to 1000 nM
SMILES: N#Cc1cccc([C@H](CC(=O)O)NC(=O)c2cc(O)n(-c3ccccc3Cl)n2)c1 [Example 205]

IC50 [2]: < 100 nM
SMILES: Cc1ccccc1[C@H](CC(=O)O)NC(=O)c1cc(OCC(C)O)n(-c2ccccc2F)n1 (stereo partly shown) [Example 749]

IC50 [2]: < 100 nM
SMILES: CCOc1cc(C(=O)N[C@@H](CC(=O)O)c2ccccc2Cl)nn1-c1ccccc1Cl [Example 737]
